Legend:
Dihydrofolate reductase [1] = biological target: T1, Dihydrofolate reductase (Rattus norvegicus, UniProt Q920D2); assay: Binding affinity against Dihydrofolate reductase of rat liver; conditions: read-out: I50
T1 sequence (Q920D2 whole entry): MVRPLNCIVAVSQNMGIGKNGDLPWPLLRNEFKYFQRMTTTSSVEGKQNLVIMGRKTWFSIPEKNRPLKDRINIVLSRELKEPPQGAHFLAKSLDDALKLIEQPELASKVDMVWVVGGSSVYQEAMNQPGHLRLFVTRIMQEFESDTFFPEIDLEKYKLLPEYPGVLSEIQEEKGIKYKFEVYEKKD

Escherichia coli [2] = assay: (§1) Relative in vitro Antibacterial activity against Escherichia coli CN314 strain; format: functional; parameters: reference not given here
Staphylococcus aureus = assay: Relative in vitro Antibacterial activity against Staphylococcus aureus CN491 strain; format: functional; parameters: unit not given here
Dihydrofolate reductase [3] = biological target: T2, Dihydrofolate reductase (Gallus gallus, UniProt P00378); assay: Binding affinity against Dihydrofolate reductase Inhibitor of chicken liver; conditions: read-out: I50
T2 sequence (P00378 whole entry): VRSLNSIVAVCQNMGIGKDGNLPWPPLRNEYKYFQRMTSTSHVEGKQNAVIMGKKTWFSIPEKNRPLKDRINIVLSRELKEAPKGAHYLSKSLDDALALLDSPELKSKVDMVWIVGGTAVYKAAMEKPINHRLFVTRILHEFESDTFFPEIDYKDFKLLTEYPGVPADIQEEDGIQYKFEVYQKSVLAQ

Proteus vulgaris = assay: Relative in vitro Antibacterial activity against Proteus vulgaris CN329 strain; format: functional; parameters: unit not given here
Escherichia coli [4] = assay: as §1; format: functional; parameters: unit not given here
Salmonella = format: functional, salmonella typhosa; parameters: unit not given here
[5] = biological target: T3, Dihydrofolate reductase (Rattus norvegicus) (UniProt Q920D2); assay: Percent inhibition against Dihydrofolate reductase of rat liver at dose 1.0 mg/kg; format: organism-based; parameters: dose 1 mg/kg
T3 sequence (whole entry): T1 sequence (Q920D2 whole entry)

[6] = biological target: T3, Dihydrofolate reductase (Rattus norvegicus); assay: Percent inhibition against Dihydrofolate reductase of rat liver at dose 0.42 mg/kg; format: organism-based; parameters: dose 0.42 mg/kg
[7] = biological target: T3, Dihydrofolate reductase (Rattus norvegicus); assay: Percent inhibition against Dihydrofolate reductase of rat liver at dose 0.9 mg/kg; format: organism-based; parameters: dose 0.9 mg/kg
Dihydrofolate reductase [8] = biological target: T4, Dihydrofolate reductase (Escherichia coli, UniProt P0ABQ4); assay: Relative Binding affinity against Dihydrofolate reductase of Escherichia coli
T4 sequence (P0ABQ4 whole entry): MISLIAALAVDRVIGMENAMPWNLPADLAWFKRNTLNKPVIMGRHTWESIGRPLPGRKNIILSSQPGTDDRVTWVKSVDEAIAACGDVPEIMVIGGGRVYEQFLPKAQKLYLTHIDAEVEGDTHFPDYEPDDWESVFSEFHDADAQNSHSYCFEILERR

Dihydrofolate reductase [9] = biological target: T2, Dihydrofolate reductase; assay: Binding affinity against Dihydrofolate reductase of chicken liver; conditions: read-out: I50

Row | SMILES | IC50 (Dihydrofolate reductase [1]) [µM] | MIC (Escherichia coli [2]) | MIC (Staphylococcus aureus) | MIC (Proteus vulgaris) | MIC (Escherichia coli [4]) | MIC (Salmonella) | further results
1 | COc1cc(Cc2cnc(N)nc2N)cc(OCCCC(=O)O)c1OC | 9.7 | 100 | 20 | >100 | – | – | IC50 (Dihydrofolate reductase [3]): 22 µM
2 | COc1cc(Cc2cnc(N)nc2N)cc(OC)c1OC [TRIMETHOPRIM] | – | 1 | 1 | 1 | – | – | –
3 | COc1cc(Cc2cnc(N)nc2N)cc(OCCCCCC(=O)O)c1OC | 35 | 300 | 2 | >100 | – | – | –
4 | COc1cc(Cc2cnc(N)nc2N)cc(OC)c1OCCCCC(=O)O | 640 | – | – | – | – | – | –
5 | COc1cc(Cc2cnc(N)nc2N)cc(OCC(=O)O)c1OC | 70 | 100 | >200 | >100 | – | – | –
6 | COC(=O)CCCCOc1cc(Cc2cnc(N)nc2N)cc(OC)c1OC | 130 | – | 2 | >100 | 1000 | – | –
7 | COc1cc(Cc2cnc(N)nc2N)cc(OCCCCC(=O)O)c1OC | 27 | 300 | 2 | >100 | – | – | –
8 | COc1cc(Cc2cnc(N)nc2N)cc(OCCCCCCC(=O)O)c1OC | 56 | 100 | 1 | >50 | – | – | –
9 | CCOC(=O)CCCOc1cc(Cc2cnc(N)nc2N)cc(OC)c1OC | 160 | – | 10 | 50 | 100 | 100 | –
10 | COC(=O)CCCCOc1c(OC)cc(Cc2cnc(N)nc2N)cc1OC | – | – | – | – | – | – | inhibition [5]: 0%
11 | COC(=O)COc1cc(Cc2cnc(N)nc2N)cc(OC)c1OC | – | – | 200 | >100 | 100 | 1000 | inhibition [6]: 15%
12 | COC(=O)CCCCCCOc1cc(Cc2cnc(N)nc2N)cc(OC)c1OC | 110 | – | 0.2 | >50 | 100 | 50 | –
13 | COc1cc(Cc2cnc(N)nc2N)cc(OC)c1OCC(=O)O | – | – | 200 | >100 | 300 | 100 | –
14 | COC(=O)CCCCCOc1cc(Cc2cnc(N)nc2N)cc(OC)c1OC | 180 | – | 2 | >100 | 100 | 30 | –
15 | CCOC(=O)COc1c(OC)cc(Cc2cnc(N)nc2N)cc1OC | – | – | 60 | >100 | 100 | 10 | –
16 | COc1cc(Cc2cnc(N)nc2N)cc(OC)c1OCCCCCC(=O)O | – | – | 6 | >100 | 30 | 30 | –
17 | CCOC(=O)CCCOc1c(OC)cc(Cc2cnc(N)nc2N)cc1OC | – | – | – | – | – | – | inhibition [7]: 17%
18 | COc1cc(Cc2cnc(N)nc2N)cc(OCCC(=O)O)c1OC | 74 | 1 | 20 | >100 | – | – | –
19 | COC(=O)CCCCCOc1c(OC)cc(Cc2cnc(N)nc2N)cc1OC | – | – | 6 | >100 | 1000 | 300 | –
20 | COc1cc(Cc2cnc(N)nc2N)cc(OC)c1OCCCC(=O)O | 400 | – | – | – | – | – | Ki (Dihydrofolate reductase [8]): 5.2 nM; IC50 (Dihydrofolate reductase [9]): 350 µM

— ChEMBL document CHEMBL1123078 (J Med Chem, 1985)
